Paper PMC12469827, “Targeting G6PD with Benzimidazole and Thiazole Derivatives Suppresses SIRT 2 and VEGF Expression and Induces Cytotoxicity in Glioma Cells” (International Journal of Molecular Sciences, 2025)

Legend:
[1] = biological target: T1, Glucose-6-Phosphate Dehydrogenase (G6PD) (Homo sapiens, UniProt P11413); assay: residual activity of purified recombinant enzyme (NADPH at […] nm) after […] h incubation; supported by CD and intrinsic fluorescence; assay type: biochemical
[2] = biological target: T1, Glucose-6-Phosphate Dehydrogenase (G6PD); assay: residual activity of purified recombinant enzyme (NADPH at […] nm) after […] h incubation; supported by intrinsic fluorescence (minimal CD change); assay type: biochemical

T1 sequence (P11413 2-515): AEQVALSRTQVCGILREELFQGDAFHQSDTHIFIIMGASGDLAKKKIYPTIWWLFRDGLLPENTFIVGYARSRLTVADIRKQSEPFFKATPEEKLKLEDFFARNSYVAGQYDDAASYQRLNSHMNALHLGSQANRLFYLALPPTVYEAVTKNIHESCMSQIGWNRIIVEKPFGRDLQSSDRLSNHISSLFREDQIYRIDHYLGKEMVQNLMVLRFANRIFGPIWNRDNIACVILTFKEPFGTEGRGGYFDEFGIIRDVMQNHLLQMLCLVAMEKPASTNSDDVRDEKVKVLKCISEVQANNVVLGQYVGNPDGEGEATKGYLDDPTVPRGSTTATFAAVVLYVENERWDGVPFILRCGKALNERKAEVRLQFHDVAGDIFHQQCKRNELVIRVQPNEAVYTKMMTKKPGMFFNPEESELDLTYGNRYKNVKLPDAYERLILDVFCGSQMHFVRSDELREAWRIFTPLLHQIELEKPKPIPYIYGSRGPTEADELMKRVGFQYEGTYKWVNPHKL

## O=[N+]([O-])c1ccc2nc([S+]([O-])Cc3ccccn3)[nH]c2c1 (stereo not drawn) [BZM-7]
[1]; read-out: IC50
  IC50: 40 µM

## Cc1cnc(C[S+]([O-])c2nc3cc([N+](=O)[O-])ccc3[nH]2)c(C)c1OCC(F)(F)F (stereo not drawn) [BZM-9]
[2]
  IC50: 42 µM

## O=C(Nc1ccc(Cl)cc1)Nc1ncc([N+](=O)[O-])s1 [CNZ-3]
[1]
  IC50: 121 µM
